No end group written: not given here. *: point of attachment. FITC = O=C1OC2(c3ccc(O)cc3Oc3cc(O)ccc32)c2ccc(NC(=S)*)cc21
What was measured:
rat lung injury sites = test: Lung injury repair after implantation of peptide-bound collagen sponge (Masson's staining); assay type: in vivo; details: 35 days after implantation, vs control groups, FIG. 7
Description: After a CBD-affinity peptide and control peptides were implanted into rat lung injury sites according to the above method, lung tissues were taken out 35 days later and subjected to pathological identification.

rat lung injury site = test: Recruitment of endogenous MSCs to peptide-bound collagen sponge implanted into rat lung injury site (flow cytometry); assay type: in vivo; details: rat lung defect, 12 h, 24 h or 48 h after implantation, vs control groups; FIGS. 6A to 6F
Protocol: Rats weighing about 150 g were anesthetized, intubated and subjected to partial resection on middle lobes of right lungs in the case of positive pressure ventilation of ventilators, where lung tissues with a size of about 0.5 cm*0.5 cm*0.3 cm were resected, and the collagen sponges which had been uniformly added dropwise with the CBD-affinity peptide or the control peptides and incubated for 2 h at 37° C. in advance were implanted into rat lung defect sites, respectively. After the rats were sacrificed after 12 h, 24 h or 48 h, respectively, the implanted collagen sponges were completely separated and taken out. The collagen sponges were dissolved with a collagenase, and cells adsorbed on the collagen sponges in vivo were separated and collected. Through identification of expression of CD45, CD44, CD71 and CD90 on surfaces of the cells, proportions of the numbers of MSCs adsorbed on the collagen sponges at the implantation sites were analyzed. The proportions that the MSCs accounted for in the cells digested from the collagen sponges were detected by flow cytometry.

[1] = system: human bone marrow stromal cell line HS-5; test: Binding recovery of phage to control HS-5 cells (elution and titration); assay type: cell-based; details: FIG. 2B
Protocol: (§1) An HY7 phage monoclone and an M13KE negative control phage were amplified with reference to the method in Example 1 and titrated. The HY7 phage monoclone and the M13KE negative control phage were added to well plates containing human MSCs with a confluence pre-cultured to about 80%, and an unrelated human bone marrow stromal cell line HS-5 was set as a control. The HY7 phage monoclone and the M13KE negative control phage were subjected to binding and elution according to a step of screening phages to obtain an eluent of the HY7 phage binding to the target protein and an eluent of the M13KE negative control phage binding to the target protein, respectively. The eluent of the HY7 phage binding to the target protein and the eluent of the M13KE negative control phage binding to the target protein were titrated according to a phage titration method. The binding of the HY7 phage monoclone to the target molecule and the binding of the M13KE negative control phage to the target molecule were compared. […] FIG. 2A is a schematic diagram illustrating the binding recovery of an HY7 phage monoclone and an M13KE negative control phage to human MSCs, and FIG. 2B is a schematic diagram illustrating the binding recovery of an HY7 phage monoclone and an M13KE negative control phage to HS-5 cells.

human MSCs = test: Binding recovery of phage to human MSCs (elution and titration); assay type: cell-based; details: vs M13KE negative control phage, FIG. 2A
Protocol: as §1

rat MSCs = test: Binding of FITC-labeled peptide to rat MSCs by flow cytometry; assay type: cell-based; details: FITC-labeled peptides, vs M7, FIG. 4
Description: To evaluate the species specificity of the HY7 peptide and provide a basis for subsequent animal experiments, the binding of HY7 to rat MSCs was specifically verified. Rat bone marrow cells were acquired according to a conventional method and subjected to culture and identification, and rat MSCs were obtained. The binding of an FITC-HY7 peptide and an FITC-M7 peptide to the rat MSCs was detected according to the above flow cytometry detection method.

Row | binding ability to the rat MSCs (rat MSCs) | Substance | repair effect at the tissue site (rat lung injury sites) | MSCs adsorbed to the collagen sponge (proportion of MSCs in cells digested from sponge) (rat lung injury site) | binding to the control cells HS-5 (binding recovery) [1] | binding to surfaces of the MSCs (binding recovery) (human MSCs)
1 |  | CBD-HY7: CBD (TKKTLRT) on the N-terminus of HY7 through a linker (GGGGS or GGG-K-FITC) (TKKTLRTGGGK(FITC)HGGVRLY) | better repair effect | can adsorb more MSCs to the collagen sponge in a short time |  | 
2 | significantly stronger than that of M7 | HGGVRLY (Leptin receptor affinity peptide) [HY7] |  |  | does not bind | can specifically binds to surfaces of the MSCs

Reference: patent US20240307589A1, “LEPTIN RECEPTOR AFFINITY PEPTIDE AND USE THEREOF” (Dubu Biosciences, priority 2021, published 2024)
